Drawing on patent US12227501B2, “3-amino-2-[2-(acylamino)pyridin-4-yl]-1,5,6,7-tetrahydro-4h-pyrrolo[3,2-c]pyridin-4-one as CSNK1 inhibitors” (Bayer Aktiengesellschaft, priority 2019, dated 2025), this text covers IC50 for 12 molecules.

“And” between values parts separate entries of the source, which are not always exact repeats. Equal entries are not always repeated. Where two headings read alike, the source gives them in different places. A value given as a limit tells only on which side of the number the result lay.

Holding throughout (format): biochemical
Test [1] deals with T1, human CSNK1A1 (Homo sapiens (Human), UniProt P48729). The experiment in a line: CSNK1A1 Assay 2 (ADP-Glo, 1 μM ATP). To be noted: substrate biotin-Ahx-KRRRAL-pS-VASLPGL, read-out: CSNK1A1 Assay 2 IC50 [mol/l] (median). The method in brief:
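Full-length human CSNK1A1 as an N-terminal GST fusion (baculovirus/insect cells) with biotinylated peptide substrate biotin-Ahx-KRRRAL-pS-VASLPGL and 1 μM ATP, in HEPES pH 7.5 buffer. Compounds were pre-incubated with enzyme (~0.0375 ng/μL) for 15 min at 22 °C. Generated ADP was read by ADP-Glo luminescence as the activity measure.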

Test [2] has as its target T1, human CSNK1A1. In words: CSNK1A1 High ATP Assay (ADP-Glo, 1 mM ATP). To be noted: read-out: CSNK1A1 high ATP assay IC50 [mol/l] (median). The method in brief: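 Kinase activity taken as ADP generated, quantified by ADP-Glo luminescence after 1 h ATP depletion and 1 h detection at 22 °C. Enzyme is GST–full-length human CSNK1A1 (insect cell-expressed), pre-bound to compound for 15 min, with phosphopeptide substrate and 1 mM ATP.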
On the technique in general: ADP-Glo first removes unused ATP, then detects ADP through luciferase.

For test [3], the target named is human CSNK1D (Homo sapiens (Human), UniProt P48730). In words: CSNK1D Assay (ADP-Glo, 1 μM ATP). Particulars: read-out: CSNK1D IC50 [mol/l] (median). The method in brief:
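Activity is read as ADP produced, by ADP-Glo luminescence after 1 h steps at 22 °C. The reaction uses 1 μM ATP, a biotinylated peptide and insect-cell-expressed GST–CSNK1D (about 0.5 ng/μL) in pH 7.5 HEPES buffer, with 15 min compound–enzyme preincubation.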

Test [4] addresses wild-type Epidermal Growth Factor Receptor (EGFR) (Homo sapiens (Human), UniProt P00533). In words: WT-EGFR Kinase Assay (TR-FRET, 2 mM ATP). On the technique in general: TR-FRET usually uses a lanthanide donor and a delayed reading to cut background.
[5] abbreviates: read-out: EGFR Wildtyp- 2 mM ATP IC50 [mol/l] (median).
[6] abbreviates: EGFR Wildtyp- 2 mM ATP IC50 [mol/l] (median).

Sequence of wild-type Epidermal Growth Factor Receptor (EGFR) (P00533 669-1210): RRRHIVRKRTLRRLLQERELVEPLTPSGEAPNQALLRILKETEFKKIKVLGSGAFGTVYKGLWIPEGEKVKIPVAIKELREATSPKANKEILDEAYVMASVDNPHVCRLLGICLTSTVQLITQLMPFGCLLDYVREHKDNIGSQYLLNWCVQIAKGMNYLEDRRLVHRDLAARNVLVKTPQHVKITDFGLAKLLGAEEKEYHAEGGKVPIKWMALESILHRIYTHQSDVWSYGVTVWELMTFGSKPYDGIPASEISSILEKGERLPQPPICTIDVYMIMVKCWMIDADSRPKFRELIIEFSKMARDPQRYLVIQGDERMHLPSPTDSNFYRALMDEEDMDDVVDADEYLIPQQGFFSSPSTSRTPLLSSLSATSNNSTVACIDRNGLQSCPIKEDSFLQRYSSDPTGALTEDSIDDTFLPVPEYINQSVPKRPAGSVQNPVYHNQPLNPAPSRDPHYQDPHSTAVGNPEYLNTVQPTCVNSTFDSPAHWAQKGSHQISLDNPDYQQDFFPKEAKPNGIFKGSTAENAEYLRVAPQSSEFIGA
Sequence of human CSNK1D (P48730 whole entry): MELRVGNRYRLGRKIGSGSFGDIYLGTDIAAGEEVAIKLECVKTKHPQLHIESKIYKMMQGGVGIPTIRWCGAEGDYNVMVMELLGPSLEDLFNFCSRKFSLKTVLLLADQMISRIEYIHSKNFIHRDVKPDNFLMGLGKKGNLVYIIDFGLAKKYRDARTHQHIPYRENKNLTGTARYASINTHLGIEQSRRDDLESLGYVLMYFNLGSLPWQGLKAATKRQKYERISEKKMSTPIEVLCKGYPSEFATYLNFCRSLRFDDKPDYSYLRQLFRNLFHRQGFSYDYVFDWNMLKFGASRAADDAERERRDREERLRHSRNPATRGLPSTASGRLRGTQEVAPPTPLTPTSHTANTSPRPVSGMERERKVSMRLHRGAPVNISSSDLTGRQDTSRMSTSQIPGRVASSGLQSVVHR
T1 sequence (P48729 whole entry, the tested form may be a part): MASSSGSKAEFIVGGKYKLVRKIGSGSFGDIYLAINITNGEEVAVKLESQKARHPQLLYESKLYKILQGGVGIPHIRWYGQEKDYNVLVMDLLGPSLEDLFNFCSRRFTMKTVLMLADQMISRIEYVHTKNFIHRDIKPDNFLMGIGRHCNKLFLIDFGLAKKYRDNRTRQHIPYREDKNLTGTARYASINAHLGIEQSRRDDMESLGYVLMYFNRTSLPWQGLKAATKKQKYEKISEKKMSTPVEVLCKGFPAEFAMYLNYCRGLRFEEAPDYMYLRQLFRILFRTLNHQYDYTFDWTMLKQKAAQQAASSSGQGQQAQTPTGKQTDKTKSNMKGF

Take `CC1Cc2[nH]c(-c3ccnc(NC(=O)C(CC(F)F)c4ccc(F)cc4)c3)c(Nc3ccccc3F)c2C(=O)N1C` (single isomer, unassigned; (-)) [Example 107, (−)-4,4-difluoro-N-{4-[3-(2-fluoroanilino)-5,6-dimethyl-4-oxo-4,5,6,7-tetrahydro-1H-pyrrolo[3,2-c]pyridin-2-yl]pyridin-2-yl}-2-(4-fluorophenyl)butanamide]: the IC50 in test [1] was 45.7 nM; in test [2], 3160 nM; in test [3] it was 59.2 nM; in test [4] (setting [5]), > 20000 nM.
With `CC1(C)Cc2[nH]c(-c3ccnc(NC(=O)C(CC(F)F)c4ccc(F)cc4)c3)c(Nc3cccc(F)c3Cl)c2C(=O)N1` (single isomer, unassigned; (-)) [Example 110, (−)-N-{4-[3-(2-chloro-3-fluoroanilino)-6,6-dimethyl-4-oxo-4,5,6,7-tetrahydro-1H-pyrrolo[3,2-c]pyridin-2-yl]pyridin-2-yl}-4,4-difluoro-2-(4-fluorophenyl)butanamide], the IC50 is 262 nM in test [1], > 20000 nM in test [2], 249 nM in test [3] and 4130 nM in test [4] (setting [6]).
As for `CC1(C)Cc2[nH]c(-c3ccnc(NC(=O)C(CC(F)F)c4ccc(F)cc4)c3)c(Nc3cccc(F)c3)c2C(=O)N1` (single isomer, unassigned; enantiomer 1) [Example 120, 4,4-difluoro-N-{4-[3-(3-fluoroanilino)-6,6-dimethyl-4-oxo-4,5,6,7-tetrahydro-1H-pyrrolo[3,2-c]pyridin-2-yl]pyridin-2-yl}-2-(4-fluorophenyl)butanamide (Enantiomer 1)], the IC50 in test [1] is 9.64 nM; in test [2] it was 477 nM; in test [3] it was 11 nM; in test [4] (setting [6]), > 20000 nM.
In the case of `O=C1NC2(CCC2)Cc2[nH]c(-c3ccnc(NC(=O)C(CC(F)F)c4ccc(F)cc4)c3)c(Nc3cccc(F)c3Cl)c21` (single isomer, unassigned; enantiomer 1) [Example 124, (−)-N-{4-[3′-(2-chloro-3-fluoroanilino)-4′-oxo-1′,4′,5′,7′-tetrahydrospiro[cyclobutane-1,6′-pyrrolo[3,2-c]pyridin]-2′-yl]pyridin-2-yl}-4,4-difluoro-2-(4-fluorophenyl)butanamide (Enantiomer 1)], the IC50 in test [1] is 74.6 nM; in test [2], > 5710 nM; in test [3], 58.7 nM; in test [4] (setting [6]) it was > 20000 nM.
In the case of `CC1(C)Cc2[nH]c(-c3ccnc(NC(=O)C(CC(F)F)c4ccc(F)cc4)c3)c(Nc3cccc(F)n3)c2C(=O)N1` (single isomer, unassigned; enantiomer 1) [Example 129, 4,4-difluoro-2-(4-fluorophenyl)-N-(4-{3-[(6-fluoropyridin-2-yl)amino]-6,6-dimethyl-4-oxo-4,5,6,7-tetrahydro-1H-pyrrolo[3,2-c]pyridin-2-yl}pyridin-2-yl)butanamide (Enantiomer 1)], the IC50 was 3.39 nM in test [1], 6.37 nM in test [2], 5.4 nM in test [3] and > 20000 nM in test [4] (setting [6]).
Regarding `Cc1ccccc1Nc1c(-c2ccnc(NC(=O)C(C)c3ccc(F)cc3)c2)[nH]c2c1C(=O)NC(C)(C)C2` (single isomer, unassigned; enantiomer 1) [Example 133, (−)-N-{4-[6,6-dimethyl-3-(2-methylanilino)-4-oxo-4,5,6,7-tetrahydro-1H-pyrrolo[3,2-c]pyridin-2-yl]pyridin-2-yl}-2-(4-fluorophenyl)propanamide (Enantiomer 1)], the IC50 in test [1] was 197 nM; in test [2], > 5710 nM; in test [3] it was 280 nM; in test [4] (setting [6]) it was 405 nM.
`Cc1ccccc1Nc1c(-c2ccnc(NC(=O)C(CC(F)F)c3ccc(F)cc3)c2)[nH]c2c1C(=O)NC(C)(C)C2` (single isomer, unassigned; enantiomer 1) [Example 136, N-{4-[6,6-dimethyl-3-(2-methylanilino)-4-oxo-4,5,6,7-tetrahydro-1H-pyrrolo[3,2-c]pyridin-2-yl]pyridin-2-yl}-4,4-difluoro-2-(4-fluorophenyl)butanamide (Enantiomer 1)]: the IC50 in test [1] was 13.7 nM; in test [2], 45.6 nM; in test [3] it was 45.3 nM; in test [4] (setting [6]), > 20000 nM.
Consider `CC1(C)Cc2[nH]c(-c3ccnc(NC(=O)C(CN)c4ccc(F)cc4)c3)c(Nc3ccccc3)c2C(=O)N1` (single isomer, unassigned; enantiomer 1) [Example 140, 3-amino-N-[4-(3-anilino-6,6-dimethyl-4-oxo-4,5,6,7-tetrahydro-1H-pyrrolo[3,2-c]pyridin-2-yl)pyridin-2-yl]-2-(4-fluorophenyl)propanamide (Enantiomer 1)], for which the IC50 in test [1] was 4.1 nM; in test [2], 56.9 nM; in test [3], 9.95 nM; in test [4] (setting [6]), > 20000 nM.
Turning to `Cc1ccccc1Nc1c(-c2ccnc(NC(=O)C(CC(F)F)c3ccc(F)cc3)c2)[nH]c2c1C(=O)NC1(CCC1)C2` (single isomer, unassigned; enantiomer 1) [Example 144, (−)-4,4-difluoro-2-(4-fluorophenyl)-N-{4-[3′-(2-methylanilino)-4′-oxo-1′,4′,5′,7′-tetrahydrospiro[cyclobutane-1,6′-pyrrolo[3,2-c]pyridin]-2′-yl]pyridin-2-yl}butanamide-(Enantiomer 1)], the IC50 in test [1] is 80.7 nM; in test [2], 5060 nM; in test [3] it was 82 nM; in test [4] (setting [6]), > 20000 nM.
Take `O=C1NC2(CC2)Cc2[nH]c(-c3ccnc(NC(=O)C(CC(F)F)c4ccc(F)cc4)c3)c(Nc3ccccc3)c21` (single isomer, unassigned; enantiomer 1) [Example 148, N-[4-(3′-anilino-4′-oxo-1′,4′,5′,7′-tetrahydrospiro[cyclopropane-1,6′-pyrrolo[3,2-c]pyridin]-2′-yl)pyridin-2-yl]-4,4-difluoro-2-(4-fluorophenyl)butanamide (Enantiomer 1)]: the IC50 was found to be 8.82 nM in test [1], 12.8 nM in test [2], 8.31 nM in test [3] and 3400 nM in test [4] (setting [6]).
Take `CC(C(=O)Nc1cc(-c2[nH]c3c(c2Nc2ccccc2)C(=O)N(C)C2(CCC2)C3)ccn1)c1ccc(F)cc1` (single isomer, unassigned; enantiomer 1) [Example 158, (−)-N-[4-(3′-anilino-5′-methyl-4′-oxo-1′,4′,5′,7′-tetrahydrospiro[cyclobutane-1,6′-pyrrolo[3,2-c]pyridin]-2′-yl)pyridin-2-yl]-2-(4-fluorophenyl)propanamide (Enantiomer 1)]: the IC50 in test [1] is 239 nM and 263 nM and 52.5 nM and 67.7 nM; in test [2], > 1630 nM and 5570 nM; in test [3], 188 nM; in test [4] (setting [6]) it was > 20000 nM.
For `CC1(C)Cc2[nH]c(-c3ccnc(NC(=O)C(CC(F)F)c4ccc(F)cc4)c3)c(Nc3cccc(F)c3)c2C(=O)N1` (single isomer, unassigned; enantiomer 2) [Example 121, 4,4-difluoro-N-{4-[3-(3-fluoroanilino)-6,6-dimethyl-4-oxo-4,5,6,7-tetrahydro-1H-pyrrolo[3,2-c]pyridin-2-yl]pyridin-2-yl}-2-(4-fluorophenyl)butanamide (Enantiomer 2)], the IC50 is 70.1 nM in test [1], 10200 nM in test [2], 63.5 nM in test [3] and > 20000 nM in test [4] (setting [5]).
